Data as given in patent US20230092389A1, “UNIT DOSES, AEROSOLS, KITS, AND METHODS FOR TREATING HEART CONDITIONS BY PULMONARY ADMINISTRATION” (InCarda Therapeutics, Inc., priority 2017, published 2023).
Several values for one entry are separate records, joined by “and”; a condition that tells them apart may be missing. Equal values may be shown once. Read-outs that look alike come from different tables or passages of the source.

Key:
[1] = system: dogs with induced atrial fibrillation; format: in vivo, dog
Method: Atrial Fibrillation Model: A venous catheter was placed in a peripheral vessel (i.e., cephalic) for administration of anesthetic. […] Following induction, animals were endotracheally intubated and mechanically ventilated (˜12 breaths/minute with a tidal volume of 200-300 mL). Subsequently, a cut-down on a jugular vein permitted introduction of a pacing lead into the right atrium. Transthoracic electrodes forming ECG lead II were placed. For test/vehicle article delivery, a 4F catheter was introduced through the trachea and wedged into a small airway, and a venous catheter was placed in a peripheral vessel (i.e., cephalic). […] Approximately 5 min after administration of this parasympathomimetic was started; the following experiments were performed: […] Observations were made for up to 10 minutes. […] Vehicle was only water.

healthy volunteers = assay: Phase 1 (FLE-001) pulmonary safety: spirometry, SpO2, auscultation, chest x-ray; format: in vivo, human
Method: Pulmonary safety was assessed by performing lung spirometry tests and measuring peripheral oxygen saturation (SpO2%) prior to dosing and at various times after completion of the inhalation. Lung spirometry tests evaluated all lung function parameters, including forced vital capacity (FVC), forced expiratory volume in 1 second (FEV1), peak expiratory flow (PEF), and forced expiratory flow at 25% and 75% intervals (FEF25-75). Auscultation and respiration rate were also measured prior to dosing and at various times after inhalation. Chest x-rays were performed on subjects before and after flecainide inhalation.

[2] = system: pigs with induced atrial fibrillation; assay: Cardioversion of induced AF by IT flecainide, intact porcine model (Example 6); format: in vivo, Yorkshire pigs
Method: After 30-min recovery, the alternate intervention was tested. Times for conversion to normal sinus rhythm were compared.

[3] = system: beagle dogs with induced AF; assay: Cardioversion of induced AF by IT or IV flecainide, anesthetized dogs (Example 7); format: in vivo; conditions: for Time to NSR, individual animals: cumulative dose 0.75-1.0 mg/kg, animals 001-006
Method: The study was carried out in anesthetized healthy adult beagle dogs with induced AF. Acute AF was induced using the combination of phenylephrine ([…]), to increase heterogeneity of atrial refractory periods via increased loading and through a baroreceptor-mediated increase in parasympathetic efferent activity, and right atrial burst pacing (40-50 Hz for ˜15 min). The AF induced using this method was, in general, stable for more than 30 mins.
The cardiac rhythm was monitored prior to, during AF, and up to 10 min post-dosing and/or until conversion to NSR.

porcine model = assay: Slow versus rapid IV infusion, porcine model; format: in vivo, pig; conditions: slow (10 min) vs rapid (2 min) IV infusion
[4] = in vivo
Text: 3 cohorts of subjects, in total 34 healthy adult volunteers, were recruited for Part A study.
Part B was an open label non-randomized crossover in a cohort of 6 evaluable healthy adult volunteers.

[5] = male, Yorkshire, pig, in vivo, iv, 2 mg/kg
Method: The studies were carried out in male Yorkshire pigs (n=9) weighing 36±1.0 kg (mean±SEM). The pigs were pre-anesthetized with telazol (4.7 mg/kg, intramuscular) and subsequently further anesthetized using alpha-chloralose (80 mg/kg, IV bolus, followed by 24 mg/kg/h continuous IV infusion). The animals were intubated and ventilated at a constant rate of 12 breaths/min and tidal volume of 400 ml per stroke.
Simultaneous blood samples were drawn from the pigtail catheter positioned in the LV and from a catheter in the jugular vein.
The samples were centrifuged and frozen at −80° C. until drug level determination was performed using a bioanalytical assay method developed by Climax Laboratories, Inc.

[6] = Cohort 1, 20 mg eTLD, 3 hours Post-dose
[7] = Cohort 1, 20 mg eTLD, 12 hours Pre-dose
[8] = Cohort 1, 20 mg eTLD, 24 hours Post-dose
[9] = Cohort 2, 40 mg eTLD, 3 hours Post-dose
[10] = Cohort 2, 40 mg eTLD, 12 hours Pre-dose
[11] = Cohort 2, 40 mg eTLD, 24 hours Post-dose
[12] = both, human, inhaled or intranasal, 20 mg
[13] = both, human, inhaled or intranasal, 40 mg
[14] = both, human, inhaled or intranasal, 60 mg
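For Cmax of the two excluded subjects in this document: measured in healthy adult volunteers.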
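For Dist. t1/2α in this document: measured in healthy adult volunteers.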
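For Elim. t1/2β in this document: measured in healthy adult volunteers.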
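For Tmax (min after EOI) in this document: measured in healthy adult volunteers.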
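For Tmax in excluded subjects in this document: measured in healthy adult volunteers.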
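For concentration-time profile curves, IV normalized to 30 mg vs inhaled 30 mg eTLD in this document: measured in healthy adult volunteers.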
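For dose dependence of Cmax and AUCLast in this document: measured in healthy adult volunteers.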
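For dose dependence of distribution phase and elimination half-life in this document: measured in healthy adult volunteers.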
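For dose proportionality of venous plasma concentrations in this document: measured in healthy adult volunteers.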
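For elimination t1/2β in this document: measured in healthy adult volunteers.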
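For plasma concentration in subjects with near-equal ΔQRS (12.0 to 16 msec) in this document: measured in healthy adult volunteers.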
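For venous plasma concentration-time curves, inhaled vs IV in this document: measured in healthy adult volunteers.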

With `O=C(NCC1CCCCN1)c1cc(OCC(F)(F)F)ccc1OCC(F)(F)F` (stereo not drawn) [flecainide] the “ECG trace: Afib conversion” value ([1]; 2 mg/kg (FIG. 12)) was “Afib converting as soon as dosing occurred”, the “ECG trace: Afib conversion” value ([1]; 4 mg/kg by intra-tracheal instillation (FIG. 11)) was “Afib converting into normal sinus rhythm” and the ventricular rate ([1]; large pulmonary doses) was “slower ventricular rates”. The “effect on induced atrial fibrillation” value ([1]; pulmonary (IT) administration) was “rapidly converted the Atrial Fibrillation to normal sinus rhythm”, the “conversion of induced atrial fibrillation to normal sinus rhythm” value ([1]; pulmonary dose 2-4 mg/kg body weight) was “converted the induced atrial fibrillation to normal sinus rhythm” and the “cardiovascular effect when given by intratracheal instillation” value ([1]; summary of Example 2) was “clear cardiovascular effect”. For the same compound, the “Oxygen Saturation (SpO2%), mean” value (healthy volunteers; Cohort 1, 20 mg eTLD, 15 min Postdose) was 97%, the “Oxygen Saturation (SpO2%), mean” value (healthy volunteers; Cohort 1, 20 mg eTLD, 30 min Postdose) was 97% and the “Oxygen Saturation (SpO2%), mean” value (healthy volunteers; Cohort 1, 20 mg eTLD, 45 min Postdose) was 97%. The “Oxygen Saturation (SpO2%), mean” value (healthy volunteers; Cohort 1, 20 mg eTLD, 60 min Postdose) was 97%, the “Oxygen Saturation (SpO2%), mean” value (healthy volunteers; Cohort 1, 20 mg eTLD, 75 min Postdose) was 98% and the “Oxygen Saturation (SpO2%), mean” value (healthy volunteers; Cohort 1, 20 mg eTLD, 90 min Postdose) was 98%. For the same compound, the “Oxygen Saturation (SpO2%), mean” value (healthy volunteers; Cohort 1, 20 mg eTLD, 105 min Postdose) was 97%, the “Oxygen Saturation (SpO2%), mean” value (healthy volunteers; Cohort 1, 20 mg eTLD, 120 min Postdose) was 98% and the “FEF25-75, mean” value (healthy volunteers; [6]) was 5.48 L/s. For the same compound, the “FEV1, mean” value (healthy volunteers; [6]) was 5.27 L, the “FVC, mean” value (healthy volunteers; [6]) was 6.42 L and the “PEF, mean” value (healthy volunteers; [6]) was 10.87 L/s. For the same compound, the “FEF25-75, mean” value (healthy volunteers; [7]) was 5.38 L/s, the “FEV1, mean” value (healthy volunteers; [7]) was 5.26 L and the “FVC, mean” value (healthy volunteers; [7]) was 6.02 L. For the same compound, the “PEF, mean” value (healthy volunteers; [7]) was 11.30 L/s, the “FEF25-75, mean” value (healthy volunteers; [8]) was 5.40 L/s and the “FEV1, mean” value (healthy volunteers; [8]) was 5.18 L. The “FVC, mean” value (healthy volunteers; [8]) was 6.36 L, the “PEF, mean” value (healthy volunteers; [8]) was 11.09 L/s and the “Oxygen Saturation (SpO2%), mean” value (healthy volunteers; Cohort 1, 20 mg eTLD, Predose) was 98%. The “Oxygen Saturation (SpO2%), mean” value (healthy volunteers; Cohort 2, 40 mg eTLD, 15 min Postdose) was 96%, the “Oxygen Saturation (SpO2%), mean” value (healthy volunteers; Cohort 2, 40 mg eTLD, 30 min Postdose) was 97% and the “Oxygen Saturation (SpO2%), mean” value (healthy volunteers; Cohort 2, 40 mg eTLD, 45 min Postdose) was 96%. The “Oxygen Saturation (SpO2%), mean” value (healthy volunteers; Cohort 2, 40 mg eTLD, 60 min Postdose) was 96%, the “Oxygen Saturation (SpO2%), mean” value (healthy volunteers; Cohort 2, 40 mg eTLD, 75 min Postdose) was 97% and the “Oxygen Saturation (SpO2%), mean” value (healthy volunteers; Cohort 2, 40 mg eTLD, 90 min Postdose) was 97%. For the same compound, the “Oxygen Saturation (SpO2%), mean” value (healthy volunteers; Cohort 2, 40 mg eTLD, 105 min Postdose) was 97%, the “Oxygen Saturation (SpO2%), mean” value (healthy volunteers; Cohort 2, 40 mg eTLD, 120 min Postdose) was 97% and the “FEF25-75, mean” value (healthy volunteers; [9]) was 4.34 L/s. For the same compound, the “FEV1, mean” value (healthy volunteers; [9]) was 4.96 L, the “FVC, mean” value (healthy volunteers; [9]) was 6.19 L and the “PEF, mean” value (healthy volunteers; [9]) was 10.66 L/s. The “FEF25-75, mean” value (healthy volunteers; [10]) was 5.00 L/s, the “FEV1, mean” value (healthy volunteers; [10]) was 5.04 L and the “FVC, mean” value (healthy volunteers; [10]) was 6.18 L. The “PEF, mean” value (healthy volunteers; [10]) was 10.83 L/s, the “FEF25-75, mean” value (healthy volunteers; [11]) was 4.80 L/s and the “FEV1, mean” value (healthy volunteers; [11]) was 5.08 L. The “FVC, mean” value (healthy volunteers; [11]) was 6.39 L, the “PEF, mean” value (healthy volunteers; [11]) was 11.14 L/s and the “Oxygen Saturation (SpO2%), mean” value (healthy volunteers; Cohort 2, 40 mg eTLD, Predose) was 97%. For the same compound, the respiratory rate (healthy volunteers; Cohorts 1, 2, 3, 5) was “minimal or no changes”, the “standard lung spirometry measurements and peripheral O2 saturation” value (healthy volunteers; Cohorts 1, 2, 3, 5) was “normal before and after” and the “SpO2 pre-dose and post-dose values” (healthy volunteers; Cohorts 1 and 2) was 97-98%. The “lung function parameters (FVC, FEV1, PEF, FEF25-75) pre-dose and post-dose” value (healthy volunteers; Cohorts 1 and 2) was “within the normal range for the population studied”, the Auscultation (healthy volunteers; inhaled 20, 30, 40 mg eTLD) was “normal” and the Chest x-rays (healthy volunteers; inhaled 20, 30, 40 mg eTLD) was “normal and showed no changes”. For the same compound, the respiration rate (healthy volunteers; inhaled 20, 30, 40 mg eTLD) was “No changes”, the “reduction of AF duration” value ([2]; IT 0.75 mg/kg vs no-drug) was 50% and the “time to conversion of AF to normal sinus rhythm” value ([2]; IT 0.75 mg/kg, n=3, no-drug 16.2±0.9) was 8.1 ± 1.0 min. For the same compound, the “AF conversion in representative electrograms, time after IT flecainide” value ([2]; IT 1.5 mg/kg (FIG. 65)) was 5 min, the “shortening in AF duration” value ([2]; IT 1.5 mg/kg vs no drug) was 72% and the “time to conversion of AF to normal sinus rhythm (mean±SEM)” value ([2]; IT 1.5 mg/kg, n=5, no drug 12.3±1.9 min) was 3.4 ± 0.3 min. For the same compound, the “dominant frequency of AF” value ([2]; IT 0.75 and 1.5 mg/kg) was “reduced the dominant frequency of AF”, the “relation of AF duration to dose” value ([2]; IT 0.75 and 1.5 mg/kg) was “AF duration correlated with flecainide dose” and the “time for plasma concentration to reach levels required for conversion” value ([2]; IT 0.75 and 1.5 mg/kg (FIG. 66A)) was ≤ 10 min. The “MAP and ventricular rate after conversion” value ([2]; IT 1.5 or 0.75 mg/kg) was “restored MAP and ventricular rate to baseline values”, the “effectiveness in rapidly converting AF to normal sinus rhythm” value ([2]; IT 1.5 or 0.75 mg/kg) was 100% and the “effects in BP, VR and LV dP/dtmax upon conversion, IV vs IT” value ([3]; FIG. 69) was “Flecainide given IV caused greater effects”. The “dogs converted from AF to NSR” value ([3]; IT) was 6/6, the “representative ECG: conversion of AF to NSR” value ([3]; IT 0.75 mg/kg (FIGS. 68A-D)) was “conversion of AF to NSR” and the “Time to NSR, individual animals” value ([3]; IT, cumulative IT dose 0.75 mg/kg) was 12 s and 23 s and 62 s. For the same compound, the “Time to NSR, individual animals” value ([3]; IT, cumulative IT dose 0.75 (0.25 + 0.5) mg/kg) was 147 s and 52 s, the “Time to NSR, individual animals” value ([3]; IT, cumulative IT dose 1.0 (0.75 + 0.25) mg/kg) was 83 s and the “Time to NSR, Mean ± SEM” value ([3]; IT, mean dose 0.79 ± 0.04 mg/kg, 6 dogs, 0.04 mg/kg) was 63 ± 18 s. For the same compound, the “dogs converted from AF to NSR” value ([3]; IV bolus) was 2/2, the “time to conversion of AF to NSR” value ([3]; IV bolus) was 29 s and the “sufficiency of LV (left atrium) levels to terminate AF” value ([3]; pulmonary delivery) was “sufficient to rapidly terminate AF”. The “correlation of venous plasma levels with QRS duration” value (porcine model) was “positively correlated with QRS duration”, the “elimination t1/2β” value ([4]; both, human) was 9 to 12 h and the “Cmax of the two excluded subjects” value ([4]; both, human, 40 mg) was 43.5 ng/mL. For the same compound, the “Cmax of the two excluded subjects” value ([4]; both, human, 60 mg) was 51.3 ng/mL, the “Tmax in excluded subjects” value ([4]; both, human, 60 mg) was “greater than 15 minutes” and the “Dist. t1/2α” value [4, 12] was 3.86 (34) min. For the same compound, the “Elim. t1/2β” value [4, 12] was 9.87 (25) hours, the “Dist. t1/2α” value [4, 13] was 4.19 (39) min and the “Elim. t1/2β” value [4, 13] was 9.0 (24) hours. The “Dist. t1/2α” value [4, 14] was 3.47 (17) min, the “Elim. t1/2β” value [4, 14] was 12.0 (14) hours and the “dose dependence of Cmax and AUCLast” value ([4]; human) was “dose-dependent”. The “dose dependence of distribution phase and elimination half-life” value ([4]; human) was “independent of the doses”, the “plasma concentration in subjects with near-equal ΔQRS (12.0 to 16 msec)” value ([4]; human) was 85 ± 40.3 ng/mL and the “Tmax (min after EOI)” value ([4]; human, inhaled or intranasal, 30 mg) was 0.5 (0, 1) min. The “plasma concentration in subjects with near-equal ΔQRS (12.0 to 16 msec)” value ([4]; human, iv) was 222 ± 23 ng/mL, the “Tmax (min after EOI)” value ([4]; human, iv, 2 mg/kg) was 1 (0, 60) min and the “dose proportionality of venous plasma concentrations” value [4] was “near dose proportionality”. The “venous plasma concentration-time curves, inhaled vs IV” value ([4]; 2 mg/kg) was “similar”, the “concentration-time profile curves, IV normalized to 30 mg vs inhaled 30 mg eTLD” value ([4]; iv) was “near-identical” and the “time of peak LV and venous plasma levels” value [5] was 2 min.
